According to patent publication US20060147485A1, “Oil-in-water formulation of avermectins” (priority 2005, published 2006):

Columns and labels:
[1] = Stability of Abamectin in water at various pH-values and temperatures (dark, HPLC); format: physicochemical
Method: The stability of Abamectin in water at various pH-values and temperatures was determined. 194.4 mg of abamectin was dissolved in 10 ml methanol and 1 ml of the solution transferred to 100 ml of de-mineralised water and a part of this was transferred to a buffer solution. The sample was kept in the dark and the solution analysed using a HPLC.

[2] = Stability of Abamectin in water exposed to light at various pH-values (HPLC); format: physicochemical; settings: Light (5000-6000 lux)
Method: The stability of Abamectin in water exposed to light at various pH-values was determined. 194.4 mg of abamectin was dissolved in 10 ml methanol and 1 ml of the solution transferred to 100 ml of demineralised water and a part of this transferred to a buffer solution. The solution was exposed to light (5000-6000 lux) at 25° C. and analysed using a HPLC.

Abamectin
Abemectin concentration (ppm) ([1]; pH 4.0, 25 ° C., 7 days): 3.130 ppm | Abemectin concentration (ppm) ([1]; pH 4.0, 25 ° C., 14 days): 2.782 ppm | Abemectin concentration (ppm) ([1]; pH 4.0, 25 ° C., 21 days): 2.566 ppm | Abemectin concentration (ppm) ([1]; pH 4.0, 25 ° C., 28 days): 2.524 ppm | Abemectin concentration (ppm) ([1]; pH 4.0, 25 ° C., Initial): 3.495 ppm | Abemectin concentration (ppm) ([1]; pH 4.0, 50 ° C., 7 days): 1.054 ppm | Abemectin concentration (ppm) ([1]; pH 4.0, 50 ° C., 14 days): 0.383 ppm | Abemectin concentration (ppm) ([1]; pH 4.0, 50 ° C., 21 days): 0.123 ppm | Abemectin concentration (ppm) ([1]; pH 4.0, 50 ° C., 28 days): 0.0609 ppm | Abemectin concentration (ppm) ([1]; pH 4.0, 50 ° C., Initial): 3.495 ppm | Abemectin concentration (ppm) ([1]; pH 7.0, 25 ° C., 7 days): 3.188 ppm | Abemectin concentration (ppm) ([1]; pH 7.0, 25 ° C., 14 days): 3.040 ppm | Abemectin concentration (ppm) ([1]; pH 7.0, 25 ° C., 21 days): 2.829 ppm | Abemectin concentration (ppm) ([1]; pH 7.0, 25 ° C., 28 days): 2.676 ppm | Abemectin concentration (ppm) ([1]; pH 7.0, 25 ° C., Initial): 3.327 ppm | Abemectin concentration (ppm) ([1]; pH 7.0, 50 ° C., 7 days): 2.952 ppm | Abemectin concentration (ppm) ([1]; pH 7.0, 50 ° C., 14 days): 2.780 ppm | Abemectin concentration (ppm) ([1]; pH 7.0, 50 ° C., 21 days): 2.194 ppm | Abemectin concentration (ppm) ([1]; pH 7.0, 50 ° C., 28 days): 1.949 ppm | Abemectin concentration (ppm) ([1]; pH 7.0, 50 ° C., Initial): 3.327 ppm | Abemectin concentration (ppm) ([1]; pH 9.0, 25 ° C., 7 days): 3.005 ppm | Abemectin concentration (ppm) ([1]; pH 9.0, 25 ° C., 14 days): 2.596 ppm | Abemectin concentration (ppm) ([1]; pH 9.0, 25 ° C., 21 days): 2.380 ppm | Abemectin concentration (ppm) ([1]; pH 9.0, 25 ° C., 28 days): 2.287 ppm | Abemectin concentration (ppm) ([1]; pH 9.0, 25 ° C., Initial): 3.555 ppm | Abemectin concentration (ppm) ([1]; pH 9.0, 50 ° C., 7 days): 1.265 ppm | Abemectin concentration (ppm) ([1]; pH 9.0, 50 ° C., 14 days): 0.519 ppm | Abemectin concentration (ppm) ([1]; pH 9.0, 50 ° C., 21 days): 0.205 ppm | Abemectin concentration (ppm) ([1]; pH 9.0, 50 ° C., 28 days): 0.0628 ppm | Abemectin concentration (ppm) ([1]; pH 9.0, 50 ° C., Initial): 3.555 ppm | Abemectin concentration (ppm) ([2]; pH 4.0, 25° C., 7 days): 2.923 ppm | Abemectin concentration (ppm) ([2]; pH 4.0, 25° C., 14 days): 2.332 ppm | Abemectin concentration (ppm) ([2]; pH 4.0, 25° C., 21 days): 1.961 ppm | Abemectin concentration (ppm) ([2]; pH 4.0, 25° C., 28 days): 1.666 ppm | Abemectin concentration (ppm) ([2]; pH 4.0, 25° C., Initial): 3.495 ppm | Abemectin concentration (ppm) ([2]; pH 7.0, 25° C., 7 days): 2.941 ppm | Abemectin concentration (ppm) ([2]; pH 7.0, 25° C., 14 days): 2.529 ppm | Abemectin concentration (ppm) ([2]; pH 7.0, 25° C., 21 days): 2.223 ppm | Abemectin concentration (ppm) ([2]; pH 7.0, 25° C., 28 days): 2.034 ppm | Abemectin concentration (ppm) ([2]; pH 7.0, 25° C., Initial): 3.327 ppm | Abemectin concentration (ppm) ([2]; pH 9.0, 25° C., 7 days): 3.163 ppm | Abemectin concentration (ppm) ([2]; pH 9.0, 25° C., 14 days): 2.810 ppm | Abemectin concentration (ppm) ([2]; pH 9.0, 25° C., 21 days): 2.360 ppm | Abemectin concentration (ppm) ([2]; pH 9.0, 25° C., 28 days): 2.173 ppm | Abemectin concentration (ppm) ([2]; pH 9.0, 25° C., Initial): 3.555 ppm
